# Source: PubChem BioAssay (NCI)
#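 Protocol summary: plate cells (96-well), add compound at 5 concentrations, incubate 48 h, interpolate endpoints linearly. Definition used: TGI = concentration required for complete inhibition of growth.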
# Key:
# Assay in all cases: NCI-60 cell line screen, 48 h
# IGROV1 ovarian = test system: IGROV1 ovarian
# PC-3 prostate = test system: PC-3 prostate
# HCT-15 colon = test system: HCT-15 colon
# SNB-75 CNS = test system: SNB-75 CNS
# OVCAR-4 ovarian = test system: OVCAR-4 ovarian
# HS 578T breast = test system: HS 578T breast
# MOLT-4 leukemia = test system: MOLT-4 leukemia
# RXF 393 renal = test system: RXF 393 renal
# HCT-116 colon = test system: HCT-116 colon
# NCI-H23 lung = test system: NCI-H23 lung
# COLO 205 colon = test system: COLO 205 colon
# SK-MEL-5 melanoma = test system: SK-MEL-5 melanoma
# MDA-N = test system: MDA-N
# EKVX NSCLC = test system: EKVX NSCLC
# SF-295 CNS = test system: SF-295 CNS
# M14 melanoma = test system: M14 melanoma
# SF-268 CNS = test system: SF-268 CNS
# U251 CNS = test system: U251 CNS
# DU-145 prostate = test system: DU-145 prostate
# MCF7 breast = test system: MCF7 breast
# K-562 leukemia = test system: K-562 leukemia
# SR leukemia = test system: SR leukemia
# T-47D breast = test system: T-47D breast
# NCI/ADR-RES ovarian = test system: NCI/ADR-RES ovarian
# BT-549 breast = test system: BT-549 breast
# TK-10 renal = test system: TK-10 renal
# KM12 colon = test system: KM12 colon
# HT29 colon = test system: HT29 colon
# UO-31 renal = test system: UO-31 renal
# OVCAR-3 ovarian = test system: OVCAR-3 ovarian
# SW-620 colon = test system: SW-620 colon
# SNB-19 CNS = test system: SNB-19 CNS
# CAKI-1 renal = test system: CAKI-1 renal
# SK-MEL-28 melanoma = test system: SK-MEL-28 melanoma
# UACC-62 melanoma = test system: UACC-62 melanoma
# ACHN renal = test system: ACHN renal
# 786-0 renal = test system: 786-0 renal
# HOP-62 NSCLC = test system: HOP-62 NSCLC
# OVCAR-8 ovarian = test system: OVCAR-8 ovarian
# SK-OV-3 ovarian = test system: SK-OV-3 ovarian
# MALME-3M melanoma = test system: MALME-3M melanoma
# SN12C renal = test system: SN12C renal
# NCI-H522 lung = test system: NCI-H522 lung
# MDA-MB-231 breast = test system: MDA-MB-231 breast
# HL-60(TB) leukemia = test system: HL-60(TB) leukemia
# RPMI-8226 leukemia = test system: RPMI-8226 leukemia
# CCRF-CEM leukemia = test system: CCRF-CEM leukemia
# HCC-2998 colon = test system: HCC-2998 colon
# MDA-MB-435 = test system: MDA-MB-435
# HOP-92 NSCLC = test system: HOP-92 NSCLC
# LOX IMVI melanoma = test system: LOX IMVI melanoma
# A498 renal = test system: A498 renal
# A549 NSCLC = test system: A549 NSCLC
# SF-539 CNS = test system: SF-539 CNS
# SK-MEL-2 melanoma = test system: SK-MEL-2 melanoma
# UACC-257 melanoma = test system: UACC-257 melanoma
# NCI-H226 lung = test system: NCI-H226 lung
smiles,measurement,setting,value
CCc1[nH]nc(C(N)=O)c1N=NN(C)C,TGI,IGROV1 ovarian,> 100 µM
same,TGI,PC-3 prostate,> 100 µM
same,TGI,HCT-15 colon,> 100 µM
same,TGI,SNB-75 CNS,> 100 µM
same,TGI,OVCAR-4 ovarian,> 100 µM
same,TGI,HS 578T breast,> 100 µM
same,TGI,MOLT-4 leukemia,41.6 µM
same,TGI,RXF 393 renal,> 100 µM
same,TGI,HCT-116 colon,> 100 µM
same,TGI,NCI-H23 lung,> 100 µM
same,TGI,COLO 205 colon,> 100 µM
same,TGI,SK-MEL-5 melanoma,> 100 µM
same,TGI,MDA-N,> 100 µM
same,TGI,EKVX NSCLC,> 100 µM
same,TGI,SF-295 CNS,> 100 µM
same,TGI,M14 melanoma,> 100 µM
same,TGI,SF-268 CNS,> 100 µM
same,TGI,U251 CNS,> 100 µM
same,TGI,DU-145 prostate,> 100 µM
same,TGI,MCF7 breast,> 100 µM
same,TGI,K-562 leukemia,66.7 µM
same,TGI,SR leukemia,38.9 µM
same,TGI,T-47D breast,> 100 µM
same,TGI,NCI/ADR-RES ovarian,> 100 µM
same,TGI,BT-549 breast,> 100 µM
same,TGI,TK-10 renal,> 100 µM
same,TGI,KM12 colon,> 100 µM
same,TGI,HT29 colon,> 100 µM
same,TGI,UO-31 renal,> 100 µM
same,TGI,OVCAR-3 ovarian,> 100 µM
same,TGI,SW-620 colon,> 100 µM
same,TGI,SNB-19 CNS,> 100 µM
same,TGI,CAKI-1 renal,> 100 µM
same,TGI,SK-MEL-28 melanoma,> 100 µM
same,TGI,UACC-62 melanoma,> 100 µM
same,TGI,ACHN renal,> 100 µM
same,TGI,786-0 renal,> 100 µM
same,TGI,HOP-62 NSCLC,> 100 µM
same,TGI,OVCAR-8 ovarian,> 100 µM
same,TGI,SK-OV-3 ovarian,> 100 µM
same,TGI,MALME-3M melanoma,> 100 µM
same,TGI,SN12C renal,> 100 µM
same,TGI,NCI-H522 lung,> 100 µM
same,TGI,MDA-MB-231 breast,> 100 µM
same,TGI,HL-60(TB) leukemia,> 100 µM
same,TGI,RPMI-8226 leukemia,> 100 µM
same,TGI,CCRF-CEM leukemia,> 100 µM
same,TGI,HCC-2998 colon,> 100 µM
same,TGI,MDA-MB-435,> 100 µM
same,TGI,HOP-92 NSCLC,> 100 µM
same,TGI,LOX IMVI melanoma,> 100 µM
same,TGI,A498 renal,> 100 µM
same,TGI,A549 NSCLC,> 100 µM
same,TGI,SF-539 CNS,> 100 µM
same,TGI,SK-MEL-2 melanoma,> 100 µM
same,TGI,UACC-257 melanoma,> 100 µM
same,TGI,NCI-H226 lung,> 100 µM
